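Interpolation was linear, between the two tested concentrations surrounding the appropriate level; five concentrations were tested over 48 hours in 96-well plates. TGI: concentration producing complete growth inhibition.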
Experiments:
Test in all cases: NCI anticancer screen, dose series, 48 h
RPMI-8226 leukemia = tested on: RPMI-8226 leukemia
A498 renal = tested on: A498 renal
OVCAR-8 ovarian = tested on: OVCAR-8 ovarian
OVCAR-3 ovarian = tested on: OVCAR-3 ovarian
HOP-92 NSCLC = tested on: HOP-92 NSCLC
UACC-257 melanoma = tested on: UACC-257 melanoma
K-562 leukemia = tested on: K-562 leukemia
UO-31 renal = tested on: UO-31 renal
LOX IMVI melanoma = tested on: LOX IMVI melanoma
SK-OV-3 ovarian = tested on: SK-OV-3 ovarian
NCI-H226 lung = tested on: NCI-H226 lung
SNB-19 CNS = tested on: SNB-19 CNS
786-0 renal = tested on: 786-0 renal
MOLT-4 leukemia = tested on: MOLT-4 leukemia
SK-MEL-28 melanoma = tested on: SK-MEL-28 melanoma
HCT-116 colon = tested on: HCT-116 colon
DU-145 prostate = tested on: DU-145 prostate
HS 578T breast = tested on: HS 578T breast

Structure (SMILES)	TGI (RPMI-8226 leukemia)	TGI (A498 renal)	TGI (OVCAR-8 ovarian)	TGI (OVCAR-3 ovarian)	TGI (HOP-92 NSCLC)	TGI (UACC-257 melanoma)	TGI (K-562 leukemia)	TGI (UO-31 renal)	TGI (LOX IMVI melanoma)	TGI (SK-OV-3 ovarian)	TGI (NCI-H226 lung)	TGI (SNB-19 CNS)	TGI (786-0 renal)	TGI (MOLT-4 leukemia)	TGI (SK-MEL-28 melanoma)	TGI (HCT-116 colon)	TGI (DU-145 prostate)	TGI (HS 578T breast)
COc1cc2c(cc1OC)C(C(CO)CO)N(CC(O)CCl)CC2 (stereo not drawn)	> 100 µM	> 100 µM	> 100 µM	> 100 µM	> 100 µM	> 100 µM	> 100 µM	> 100 µM	> 100 µM	> 100 µM	> 100 µM	> 100 µM	> 100 µM	> 100 µM	> 100 µM			
O=c1[nH]c(=O)n(C2OC(COP(=O)(O)OP(=O)(O)OC3OC(CO)C(O)C(O)C3O)C(O)C2O)cc1F (stereo not drawn)		7.43 µM	> 100 µM	4.73 µM	9.62 µM	48.9 µM	> 100 µM	2.29 µM	4.13 µM	> 87.5 µM	2.72 µM	> 100 µM	2.68 µM	> 100 µM	> 100 µM	1.23 µM		
CN(C)c1ccc(C(=C(c2ccc(N(C)C)cc2)c2ccc(N(C)C)cc2)c2ccc(N(C)C)cc2)cc1	47.6 µM	36.8 µM	44.7 µM	2.97 µM		34.8 µM	36.9 µM	39.9 µM	31.2 µM	41.8 µM	36.9 µM	29.4 µM	23.7 µM	41 µM	29.4 µM	42.1 µM		
NC(CCCC(N)P(=O)(O)c1ccccc1)P(=O)(O)c1ccccc1 (stereo not drawn)	> 261 µM	> 261 µM	> 261 µM	> 261 µM	> 261 µM	> 261 µM	> 261 µM	> 261 µM	> 261 µM	> 261 µM	> 261 µM	> 261 µM	> 261 µM	> 261 µM	> 261 µM	> 261 µM		
Cc1ccc(S(=O)(=O)N/N=C(\c2nc3ccc(Cl)cc3[nH]c2=O)C(O)c2cccc([N+](=O)[O-])c2)cc1 (stereo not drawn)	> 100 µM	> 100 µM	> 100 µM	> 100 µM	> 100 µM	> 100 µM	> 100 µM	> 100 µM	> 100 µM	> 100 µM	> 100 µM	> 100 µM	> 100 µM	> 100 µM	> 100 µM	> 100 µM		
[N-]=[N+]=C1N=CN=C1c1ncn[nH]1	38.8 µM	> 100 µM	> 100 µM	> 100 µM	45 µM	> 100 µM	60 µM	86.3 µM	40 µM	> 100 µM	> 100 µM	> 100 µM	> 100 µM	37.1 µM	> 100 µM	> 100 µM	> 100 µM	
N#CC1=C(N)n2c(s/c(=C\c3ccc(Cl)cc3)c2=O)=C(c2nc3ccccc3[nH]2)C1c1ccc(Cl)cc1 (stereo not drawn)	4.65 µM	4.29 µM	3.78 µM	3.66 µM	0.954 µM	7.84 µM	4.94 µM	> 100 µM	3.23 µM		3.46 µM	> 100 µM	4.96 µM	3.86 µM	3.03 µM	3.61 µM		
Cc1ccc(NC(=O)C2C(=O)N(c3ccc(C)cc3)C(=O)/C2=N\NC(N)=S)cc1 (stereo not drawn)	> 100 µM	> 100 µM	> 100 µM	> 100 µM	> 100 µM	> 100 µM	> 100 µM	> 100 µM	> 100 µM	> 100 µM	> 100 µM	> 100 µM	> 100 µM	> 100 µM	> 100 µM	> 100 µM		
C[n+]1c(-c2ccc(/C=N/NC(=N)N/N=C/c3ccc(-c4cn5cc(Cl)ccc5[n+]4C)cc3)cc2)cn2cc(Cl)ccc21	> 100 µM		> 100 µM			> 100 µM	> 100 µM	> 100 µM		> 100 µM		> 100 µM	> 100 µM	> 100 µM	> 100 µM	> 100 µM		> 100 µM
COc1cc(C2c3cc4c(cc3[C@@H](Nc3ccccc3)C3COC[C@H]23)OCO4)cc(OC)c1O (stereo partly drawn)	5.22 µM		> 100 µM			50.4 µM		3.71 µM		> 100 µM		> 100 µM	2.3 µM		39.1 µM	19.8 µM		12.4 µM
CN(C)CC(C)(C)/C(=N\Nc1ccccc1)c1ccccc1	> 100 µM	> 100 µM	> 100 µM	> 100 µM		> 100 µM	> 100 µM	29.3 µM	37.6 µM	73.3 µM		> 100 µM	> 100 µM	> 100 µM	> 100 µM	> 100 µM		
O=C(O)c1cc2ccccc2c(N=Nc2ccc(S(=O)(=O)Nc3nccs3)cc2)c1O	> 100 µM		> 100 µM	> 100 µM	> 100 µM	> 100 µM	> 100 µM	> 100 µM		> 100 µM	> 100 µM		> 100 µM	> 100 µM	> 100 µM	> 100 µM	> 100 µM	> 100 µM
COc1cc2c(c(OC)c1OC)-c1ccc(SC)c(=O)cc1[C@@H](NCc1ccc(C#N)cc1)CC2	> 100 µM			0.0129 µM	> 100 µM		> 100 µM	> 100 µM	55.1 µM		0.00977 µM	> 100 µM	48.9 µM	> 100 µM		0.0215 µM		
CCOC(=O)C1(C/C=C(/C)Cl)CCCC1=O (stereo not drawn)	53.6 µM	> 100 µM	> 100 µM	> 100 µM		> 100 µM	> 100 µM	> 100 µM	> 100 µM	> 100 µM	> 100 µM	> 100 µM	> 100 µM	> 100 µM	> 100 µM	> 100 µM		
O=C(/N=C/c1c(O)c2ccccc2oc1=O)Nc1ccccc1	> 100 µM	> 100 µM	> 100 µM	> 100 µM	> 100 µM	> 100 µM	> 100 µM	> 100 µM	> 100 µM	> 100 µM	> 100 µM	> 100 µM	> 100 µM	> 100 µM	> 100 µM	> 100 µM		

— PubChem BioAssay (NCI)
